Results: patent publication US10399966B2, “Compounds for treatment of trypanosomes and neurological pathogens and uses thereof” (The University of North Carolina at Chapel Hill, priority 2016, dated 2019)
Read-outs that look alike come from different tables or passages of the source.

Tests used:
T. b. brucei = assay: In vitro antitrypanosomal activity against T. brucei (growth inhibition); type: cell-based, Trypanosoma brucei; details: Trypanosoma brucei
Method: Primary hits from the screen were further characterized using a dose-response assay format to determine the EC50. In parallel, the cytotoxicities of these compounds were determined against a proliferating human hepatoma cell line (Huh7). […] SI—CC50/EC50). The final set of confirmed T. brucei hits consisted of 1035 inhibitors. […] In vitro antitrypanosomal activities against T. b. rhodesiense (STIB9000) and cytotoxicities against L6 rat myoblast cells were measured following established protocols (Orhan et al., Mar. Drugs 8:47 (2010). […] All wells including negative controls contained a final of 0.4% DMSO. After incubation of the plates at 37° C. for 48 h, the parasite density was determined using the CellTiter-Glo reagent (Promega), a firefly luciferase assay system that measures the amount of cellular ATP present in plate wells.

[1] = Distribution between mouse plasma and brain (brain penetration, ip); type: in vivo; details: for Brain/plasma ratio / [compound]Brain / [compound]Plasma: Table 14, mice, single ip dose 5 mg/kg, one hour post-dose; for [compound]Brain / [compound]Plasma: ± SEM of 3 mice (compound 3: 6 mice); for Kp at 1 h / concentration at 1 h: mouse, 5 mg/kg, Table 8; for Kp at 1 h: groups of 3 mice, read-out: Average brain/plasma ratio; for concentration at 1 h: groups of 3 mice (compound 3: ± SEM of 6 mice)
Method: For distribution of compounds between mouse plasma and brain, mice (in groups of 3) were injected with test compounds (5 mg/kg ip) and sacrificed at the indicated times for collection of plasma and brain. Compound was dissolved in 0.4 mL of dosing solution (7% Tween 80, 3% ethanol, 5% DMSO, 0.9% saline) for ip injections. The brains were weighed and immediately frozen, then later homogenized in acetonitrile using a Dounce homogenizer. Prior to animal studies, recovery of test compound was carried out by adding a known amount to a mouse brain in the test extraction solvent and performing the homogenization. Compound recovery was determined by liquid chromatography/tandem mass spectrometry analysis relative to a standard compound amount. Blood was taken from the same mice in heparinized capillary tubes (Fisherbrand) for determination of compound concentration in plasma. The concentration of compound in the brain was obtained by dividing the moles of compound in the brain by the brain volume (obtained from the brain weight assuming 1 g is 1 mL) and correcting for the brain vasculature volume of 2.5% by weight.
Brain penetration studies (Table 14) were initially performed upon compounds 1, 2, and 3, but were expanded to include other compounds in order to explore the SAR of brain penetration. Groups of three mice were given single 5 mg/kg ip doses of the test compounds and were sacrificed 1 h post-dose.

human hepatocytes HepG2 = assay: Cytotoxicity against HepG2 cells; details: for EC50: Homo sapiens, HepG2, read-out: HepG2 EC50; for EC90: read-out: HepG2 EC90, concentration required to inhibit growth by 90%, human hepatocytes
Trypanosoma cruzi = assay: Efficacy against T. cruzi in vitro; type: cell-based; details: Trypanosoma cruzi; for EC90: read-out: T.cruzi EC90
[2] = tested on: human lymphocytes CRL-8155; assay: Cytotoxicity against CRL-8155 cells; details: human lymphoblasts; for EC50: read-out: CRL-8155 EC50, concentration required to inhibit growth by 50%; for EC90: read-out: CRL-8155 EC90, concentration required to inhibit growth by 90%
Method: The selectivity of each compound for the parasite over each of the two cell lines was calculated.

[3] = Table 9, read-out: T. brucei EC50
[4] = Table 9, read-out: T. brucei EC90
[5] = brain and plasma, intraperitoneal
[6] = brain, intraperitoneal, read-out: Average [compound] brain
[7] = plasma, intraperitoneal, read-out: Average [compound] plasma
[8] = Table 8, read-out: T. brucei EC50
[9] = Table 11, read-out: T. b. brucei EC50
[10] = Table 10, read-out: T.cruzi EC50

SMILES | melting point [°C] | EC50 (T. b. brucei; [3]) [µM] | EC90 (T. b. brucei; [4]) [µM] | EC50 (human hepatocytes HepG2) [µM] | EC90 (human hepatocytes HepG2) [µM] | EC50 (T. b. brucei; [9]) [µM] | EC50 [2] [µM] | EC90 [2] [µM] | further results
CN1CCN(C(=O)Nc2ccc3sc(-c4cccc(F)c4)nc3c2)CC1 [Compound 30, N-(2-(3-Fluorophenyl)benzothiazol-5-yl)-4-methylpiperazine-1-carboxamide] | 224 to 226 | 3.15 | 7.55 | – | – | – | – | – | –
CN(C)C1CCN(C(=O)Nc2ccc3sc(-c4ccc(F)c(F)c4)nc3c2)C1 (stereo not drawn) [Compound 11, 2-(3,4-Difluorophenyl)-5-(3-dimethylamino-N-pyrrolidylamido)benzothiazole] | 147 to 149 | 1.7 | 1.95 | – | – | – | – | – | Brain/plasma ratio [1]: 3.80 ± 0.331; [compound]Brain [1]: 3.00 ± 0.796 µM; [compound]Plasma [1]: 0.780 ± 0.202 µM; Kp at 1 h [1, 5]: 3.8 ± 0.57; concentration at 1 h [1, 6]: 3000 ± 1380 nM; concentration at 1 h [1, 7]: 780 ± 350 nM; EC50 (T. b. brucei; [8]): 1.71 µM
O=C(Nc1ccc2sc(-c3ccc(F)cc3)nc2c1)N1CCCCC1 [Compound 27, 2-(4-Fluorophenyl)-5-(N-piperidylamido)benzothiazole] | 227 to 229 | 0.427 | 0.737 | > 50 | > 50 | 0.427 | > 50 | > 50 | EC50 (Trypanosoma cruzi; [10]): 1.67 µM; EC90 (Trypanosoma cruzi; Table 10): 1.95 µM
O=C(Nc1ccc2sc(-c3cccc(F)c3)nc2c1)c1ccccc1 [Compound 28, 5-Benzamido-2-(3-fluorophenyl)benzothiazole] | 221 to 222 | 1.78 | 3.62 | – | – | – | – | – | –
O=C(Nc1ccc2sc(-c3ccc(F)c(F)c3)nc2c1)N1CCC(O)C1 (stereo not drawn) [Compound 38, 2-(3,4-Difluorophenyl)-5-(3-hydroxy-N-pyrrolidylamido)benzothiazole] | 211 to 213 | 7.68 | 13.6 | – | – | – | – | – | –
O=C(Nc1ccc2sc(-c3ccccc3)nc2c1)N1CCSC1 [Compound 22] | 177 to 179 | 1.24 | 2.38 | – | – | – | – | – | –
O=C(Nc1ccc2sc(-c3ccccc3)nc2c1)N1CC=CCC1 [Compound 24, N-(2-Phenylbenzo[d]thiazol-5-yl)-3,6-dihydropyridine-1(2H)-carboxamide] | 199 to 200 | 1.12 | 1.35 | – | – | – | – | – | –
O=C(Nc1ccc2sc(-c3ccc(F)c(F)c3)nc2c1)N1CCC(C(F)(F)F)C1 (stereo not drawn) [Compound 10, 2-(3,4-Difluorophenyl)-5-[(3-trifluoromethyl)-N-pyrrolidylamido]benzothiazole] | 171 to 175 | 1.69 | 4.88 | – | – | – | – | – | Brain/plasma ratio [1]: 0.477 ± 0.052; [compound]Brain [1]: 1.97 ± 0.612 µM; [compound]Plasma [1]: 4.15 ± 1.368 µM; Kp at 1 h [1, 5]: 0.477 ± 0.09; concentration at 1 h [1, 6]: 1970 ± 1060 nM; concentration at 1 h [1, 7]: 4150 ± 2370 nM; EC50 (T. b. brucei; [8]): 1.7 µM
O=C(Nc1ccc2sc(-c3ccc(F)c(F)c3)nc2c1)N1CCC(F)(F)CC1 [Compound 40, 2-(3,4-Difluorophenyl)-5-(4,4-difluoro-N-piperidylamido)benzothiazole] | 222 to 225 | 2.98 | 4.17 | – | – | – | – | – | –
O=C(Nc1ccc2sc(-c3ccccc3F)nc2c1)N1CCCC1 [Compound 32, 2-(2-Fluorophenyl)-5-(N-pyrrolidylamido)benzothiazole] | 207 to 208 | 0.983 | 1.24 | > 50 | > 50 | 0.983 | > 50 | > 50 | EC50 (Trypanosoma cruzi; [10]): 1.23 µM; EC90 (Trypanosoma cruzi; Table 10): 1.99 µM
O=C(Nc1ccc2sc(-c3ccccc3)nc2c1)c1cccs1 [Compound 18, 2-Phenyl-5-(2-thienylamido)benzothiazole] | 256 | 0.882 | 2.13 | > 50 | > 50 | 0.882 | > 50 | > 50 | –
O=C(Nc1ccc2sc(-c3ccc(F)c(F)c3)nc2c1)N1CC[C@@H](F)C1 [Compound 4, (R)-2-(3,4-Difluorophenyl)-5-(3-fluoro-N-pyrrolidylamido)benzothiazole] | – | 0.326 | 0.491 | > 50 | > 50 | 0.326 | > 50 | > 50 | Brain/plasma ratio [1]: 4.86 ± 1.055; [compound]Brain [1]: 6.35 ± 2.257 µM; [compound]Plasma [1]: 1.20 ± 0.270 µM; concentration at 1 h ([1]; in vivo, read-out: Average [compound] brain): 6350 ± 3910 nM; concentration at 1 h ([1]; in vivo, read-out: Average [compound] plasma): 1200 ± 467 nM; Kp at 1 h ([1]; in vivo): 4.86 ± 1.83; EC50 (T. b. brucei; Table 6, read-out: T. brucei EC50): 0.326 µM; EC50 (T. b. brucei; [8]): 0.326 µM; EC50 (Trypanosoma cruzi; Table 6, read-out: T. cruzi EC50): 0.491 µM; EC50 (Trypanosoma cruzi; [10]): 0.968 µM; EC90 (Trypanosoma cruzi; Table 10): 1.54 µM
O=C(Nc1ccc2sc(-c3ccc(F)c(F)c3)nc2c1)N1C[C@@H](F)[C@@H](F)C1 [Compound 59, cis-2-(3,4-Difluorophenyl)-5-(3,4-difluoro-N-pyrrolidylamido)benzothiazole] | 241 to 243 | – | – | – | – | – | – | – | EC50 (T. b. brucei; Table 17, read-out: T. b. brucei EC50): 0.34 µM; EC90 (T. b. brucei; Table 17, read-out: T. b. brucei EC90): 0.517 µM
COC1CCN(C(=O)Nc2ccc3sc(-c4ccc(F)c(F)c4)nc3c2)C1 (stereo not drawn) [Compound 39, 2-(3,4-Difluorophenyl)-5-(3-methoxy-N-pyrrolidylamido)benzothiazole] | 189 to 190.5 | 3.05 | 4.59 | – | – | – | – | – | –
O=C(Nc1ccc2sc(-c3ccc(F)cc3)nc2c1)N1CCCC1 [Compound 26, 2-(4-Fluorophenyl)-5-(N-pyrrolidylamido)benzothiazole] | 211 to 213 | 0.375 | 0.895 | > 50 | > 50 | 0.375 | > 50 | > 50 | EC50 (Trypanosoma cruzi; [10]): 0.666 µM; EC90 (Trypanosoma cruzi; Table 10): 0.802 µM
O=C(Nc1ccc2sc(-c3ccc(F)cc3)nc2c1)c1ccccc1 [Compound 25, 5-Benzamido-2-(4-fluorophenyl)benzothiazole] | 232.5 to 233.5 | 1.92 | 3 | – | – | – | – | – | –
O=C(Nc1ccc2sc(-c3ccc(F)c(F)c3)nc2c1)N1CCC(F)(F)C1 [Compound 9, 2-(3,4-Difluorophenyl)-5-(3,3-difluoro-N-pyrrolidylamido)benzothiazole] | 227 to 228 | 0.934 | 1.66 | > 50 | > 50 | 0.934 | > 50 | > 50 | Brain/plasma ratio [1]: 7.92 ± 0.693; [compound]Brain [1]: 21.7 ± 1.96 µM; [compound]Plasma [1]: 2.81 ± 0.452 µM; Kp at 1 h [1, 5]: 7.92 ± 1.2; concentration at 1 h [1, 6]: 21700 ± 3400 nM; concentration at 1 h [1, 7]: 2810 ± 784 nM; EC50 (T. b. brucei; [8]): 0.934 µM
O=C(Nc1ccc2sc(-c3ccc(F)cc3F)nc2c1)N1CCCC1 [Compound 34, 2-(2,4-Difluorophenyl)-5-(N-pyrrolidylamido)benzothiazole] | 223 to 224 | 0.929 | 1.48 | – | – | – | – | – | EC50 (Trypanosoma cruzi; [10]): 1.73 µM; EC90 (Trypanosoma cruzi; Table 10): 2.02 µM
N#CC1CCN(C(=O)Nc2ccc3sc(-c4ccc(F)c(F)c4)nc3c2)C1 (stereo not drawn) [Compound 36, 2-(3,4-Difluorophenyl)-5-(3-cyano-N-pyrrolidylamido)benzothiazole] | 222 to 224 | 2.85 | 4.67 | – | – | – | – | – | –
